In test [1] the test system is MCF7. Nature of the test: Antiproliferative activity against human MCF7 cells after 48 hrs by MTT assay. The format is functional, cell-based. The note with it: MCF7, 48 h. (In general: Formazan colour is commonly taken as a measure of viable cells.)
Test [2] relates to SK-BR-3. Nature of the test: Antiproliferative activity against human SKBR3 cells after 48 hrs by MTT assay. The test is classed as functional, cell-based. The note with it: SK-BR-3, 48 h.
The subject of test [3] is T47D. Nature of the test: Antiproliferative activity against human T47D cells after 48 hrs by MTT assay. The test is classed as functional, cell-based.
A short description of test [4]: Inhibition of PI3K assessed as amount of ADP produced preincubated with compound and L-alpha-phosphatidylinositol for 5 mins by Glo Max luminescent kinase assay.

Take `COc1ccc(-n2c(-c3ccc(NC(C)=O)cc3)nc3c2c(=O)n(C)c(=O)n3C)cc1F`: the IC50 in test [1] came to 2.8 µM; in test [2], 11.5 µM; in test [3], 1.6 µM; in test [4], 0.031 µM.
For `COc1ccc(-n2c(-c3ccc(N(C)C)cc3)nc3c2c(=O)n(C)c(=O)n3C)cc1OC`, the IC50 in test [4] worked out at 25 µM.
Still for that read-out and setting: the value for `COc1ccc(-n2c(-c3cnccc3NS(C)(=O)=O)nc3c2c(=O)n(C)c(=O)n3C)cc1` was greater than 30 µM.
Still for that read-out and setting: under `COc1ccc(-n2c(-c3cncc(NS(C)(=O)=O)c3)nc3c2c(=O)n(C)c(=O)n3C)cc1` stands 4.5 µM; under `COc1ccc(-n2c(-c3ccc(NC(C)=O)cc3)nc3c2c(=O)n(C)c(=O)n3C)cc1OC`, 0.51 µM; under `COc1cc(NC(C)=O)ccc1-c1nc2c(c(=O)n(C)c(=O)n2C)n1-c1ccc(Cl)c(Cl)c1`, 13 µM.
As to `COc1cc(N(C)C)ccc1-c1nc2c(c(=O)n(C)c(=O)n2C)n1-c1cc(F)cc(F)c1`, in test [4], the IC50 worked out at 15 µM.
On the same count and under the same terms, under `COc1ccc(-n2c(-c3cccc(NS(C)(=O)=O)c3)nc3c2c(=O)n(C)c(=O)n3C)cc1` stands 3.2 µM; under `COc1ccc(-n2c(-c3cncc(NS(=O)(=O)c4ccc(C)cc4)c3)nc3c2c(=O)n(C)c(=O)n3C)cc1`, 0.22 µM.
In the case of `COc1cc(N(C)C)ccc1-c1nc2c(c(=O)n(C)c(=O)n2C)n1-c1cccc(F)c1`, the IC50 in test [4] came out at 22 µM.
Same read-out and setting: under `COc1ccc(-n2c(-c3ccc(NC(C)=O)c(OC)c3)nc3c2c(=O)n(C)c(=O)n3C)cc1F` stands 8.5 µM.
Same read-out and setting: the value for `COc1ccc(-n2c(-c3cncc(NS(=O)(=O)c4ccccc4)c3)nc3c2c(=O)n(C)c(=O)n3C)cc1` was 0.091 µM; that for `CN(C)c1ccc(-c2nc3c(c(=O)n(C)c(=O)n3C)n2-c2cc(F)cc(F)c2)cc1` was 25 µM.
Still for that read-out and setting: the value for `CN(C)c1ccc(-c2nc3c(c(=O)n(C)c(=O)n3C)n2-c2ccc(Cl)c(Cl)c2)cc1` was greater than 30 µM.
`CC(=O)Nc1ccc(-c2nc3c(c(=O)n(C)c(=O)n3C)n2-c2cccc(F)c2)cc1`: the IC50 worked out at 1.7 µM in test [1], 15.4 µM in test [2], 0.9 µM in test [3] and 0.068 µM in test [4].
The corresponding values for `COc1ccc(-n2c(-c3ccc(NC(C)=O)cc3)nc3c2c(=O)n(C)c(=O)n3C)cc1` are 9.4 µM, greater than 25 µM, 3.7 µM and 0.15 µM.
For `CN(C)c1ccc(-c2nc3c(c(=O)n(C)c(=O)n3C)n2-c2cccc(F)c2)cc1`, in test [4], the IC50 worked out at 20 µM.
On the same count and under the same terms, under `CC(=O)Nc1ccc(-c2nc3c(c(=O)n(C)c(=O)n3C)n2-c2ccc(Cl)c(Cl)c2)cc1` stands 0.28 µM; under `CC(=O)Nc1ccc(-c2nc3c(c(=O)n(C)c(=O)n3C)n2-c2ccc(C)cc2)cc1`, 0.37 µM.
On to `COC(=O)Nc1ccc(-c2nc3c(c(=O)n(C)c(=O)n3C)n2-c2ccc(OC)cc2)cc1`, for which the IC50 in test [1] was 4.2 µM; in test [2], greater than 25 µM; in test [3], 1.7 µM; in test [4] it was 0.21 µM.
With `COc1ccc(-n2c(-c3ccc(N(C)C)cc3)nc3c2c(=O)n(C)c(=O)n3C)cc1`, in test [4], the IC50 stood at 22 µM.
On the same count and under the same terms, under `COc1ccc(-n2c(-c3ccc(N(C)C)cc3)nc3c2c(=O)n(C)c(=O)n3C)cc1F` stands 22 µM.
Turning to `CNC(=O)Nc1ccc(-c2nc3c(c(=O)n(C)c(=O)n3C)n2-c2ccc(OC)c(F)c2)cc1`, the IC50 in test [1] was 11.6 µM; in test [2] it was greater than 25 µM; in test [3] it was 4.7 µM; in test [4], 0.017 µM.
Consider `CC(=O)Nc1ccc(-c2nc3c(c(=O)n(C)c(=O)n3C)n2-c2ccccc2)cc1`, for which the IC50 in test [4] is 12.5 µM.

The term IC50 denotes the midpoint of a concentration-inhibition curve.

For the origin of these results see ChEMBL document CHEMBL1795300, “Fluorescent phosphoinositide 3-kinase inhibitors suitable for monitoring of intracellular distribution” (Bioorg Med Chem, 2011).
